{
  "source": "patent US6815546B2",
  "about": "“Analogues of camptothecin, their use as medicaments and the pharmaceutical compositions containing them” (Societe de Recherches et d'Applications Scientifiques …, priority 1995, dated 2004)",
  "assay_type_in_all_cases": "cell-based",
  "key": {"[1]": {"test_system": "L1210 (mouse lymphocytic leukemia)", "test": "Test on cell proliferation (MTT test), L1210", "conditions": "48 hours", "description": "(§1) a. Eight tumoral cell lines are used in this study: L1210 (mouse lymphocytic leukemia), HCT15 and LOVO (cell lines of human colon adenocarcinoma), A549 (human lung carcinoma), A172, U373 et U87 (human glioblastoma). All these lines are obtained from the American Type Culture Collection (ATCC), Rockville, Md. The L1210 cell cultures in suspension are cultured in Dulbecco's modified Eagle's medium (DMEM) (BioWhitaker, Verviers, Belgium) together with 10% of foetal calf serum inactivated by heating, 2 mM of glutamine, 50 μg/ml of penicillin and 50 μg/ml of streptomycin. The HT29 cells are cultured in mono-layer cultures in a McCoy 5a medium (Gibco, Paisley, United Kingdom) together with 10% of foetal calf serum inactivated by heat plus 2 mM of glutamine and 50 μg/ml of gentamycin. The other cells are cultured in an Earle's modified essential medium (EMEM; Gibco, Paisley, United Kingdom) together with 5% foetal calf serum inactivated by heat, 2 mM of glutamine, 50 U/ml of penicillin and 50 μg/ml of streptomycin. All the cell lines are cultured at 37° C. in a humidified atmosphere containing 95% air and 5% CO2.\n(§2) Inhibition of the tumor cell line proliferation is determined using an MTT test. 1500 L1210 cells in a culture medium (according to the needs of the cell medium) are seeded in a well of a micro-well plate (tissue culture level: 96 wells, flat bottom) 24 hours before treatment with the compounds to be tested. For these dose-response studies, the cells are incubated with each of the compounds to be tested or their corresponding solvent (controls) for 48 hours over a final concentration range of 1.10^−10 to 1.10^−4 M. All the compounds are dissolved just before use in dimethylsulphoxide (DMSO) at a concentration of 50 mM. Other dilutions of the medicaments are carried out in the culture medium. The final concentration of DMSO never exceeds 0.2% (v/v). As controls, the solutions of medicaments are replaced with the solvent which is diluted successively in the same way as the compounds to be tested.\n(§3) After the incubation period, the labeling reagent MTT (3-[4,5-dimethylthiazol-2-yl]-2,5-diphenyltetrazolium bromide; Thiazol blue, Sigma M 565, Sigma, St Louis, Mo.) is added at a final concentration of 0.3 mg/ml to each well. The cells are incubated for 4 hours at 37° C. in a humidified atmosphere. This stage allows the mitochondrial dehydrogenase of the living cells to convert the yellow tetrazolium salt MTT into crimson formazan crystals. The supernatant part is eliminated and the formazan crystals formed are solubilized with DMSO. The resultant coloured solution is quantified by absorbance at 570 nm by using a multi-cuvette scanning spectrophotometer. The data concerning the proliferation is expressed as a percentage of living cells in the treated wells, divided by the living cells in the controls. Each point represents the average of three independent experiments, each experiment represents six determinations.\n(§4) The results are expressed as percentages of the calculated proliferation by the optical density (OD) of the cells treated with a medicament divided by the OD of the control cells (cells treated with DMSO). As represented in Table II, the compounds to be tested have inhibited the proliferation of cells in a dose-dependent manner."}, "[2]": {"test_system": "HCT15 (cell lines of human colon adenocarcinoma)", "test": "Test on cell proliferation (MTT test), HCT15", "conditions": "72 hours", "description": "as §1, §2, §3\n(§5) For the other cell lines (HCT15, LOVO, A549, A172, U373, U87), 1000 to 2000 cells are seeded in the well of a micro-well plate 24 hours before medicinal treatment. […]\nas §4"}, "[3]": {"test_system": "LOVO (cell lines of human colon adenocarcinoma)", "test": "Test on cell proliferation (MTT test), LOVO", "conditions": "72 hours", "description": "as §1, §2, §3, §5, §4"}, "[4]": {"test_system": "A549 (human lung carcinoma)", "test": "Test on cell proliferation (MTT test), A549", "conditions": "72 hours", "description": "as §1, §2, §3, §5, §4"}, "[5]": {"test_system": "A172 (human glioblastoma)", "test": "Test on cell proliferation (MTT test), A172", "conditions": "72 hours", "description": "as §1, §2, §3, §5, §4"}, "[6]": {"test_system": "U373 (human glioblastoma)", "test": "Test on cell proliferation (MTT test), U373", "conditions": "72 hours", "description": "as §1, §2, §3, §5, §4"}, "U87 (human glioblastoma)": {"test_system": "U87 (human glioblastoma)", "test": "Test on cell proliferation (MTT test), U87", "conditions": "72 hours", "description": "as §1, §2, §3, §5, §4"}},
  "data": [
    {"smiles": "CCC1(O)CC(=O)OCc2c1cc1n(c2=O)Cc2cc3ccccc3nc2-1", "note": "(stereo not shown) [Example 3, 5-ethyl-5-hydroxy-1,4,5,13-tetrahydro-3H,15H-oxepino [3′,4′:6,7]indolizino[1,2-b]quinoline-3,15-dione]", "values": [
      {"measurement": "PERCENTAGE OF CELL PROLIFERATION", "setting": "[1]; 0.1 nM", "result": 87.22, "unit": "%"},
      {"measurement": "PERCENTAGE OF CELL PROLIFERATION", "setting": "[1]; 1 nM", "result": 68.92, "unit": "%"},
      {"measurement": "PERCENTAGE OF CELL PROLIFERATION", "setting": "[1]; 10 nM", "result": 42.64, "unit": "%"},
      {"measurement": "PERCENTAGE OF CELL PROLIFERATION", "setting": "[1]; 100 nM", "result": 26.85, "unit": "%"},
      {"measurement": "PERCENTAGE OF CELL PROLIFERATION", "setting": "[1]; 1 000 nM", "result": 10.83, "unit": "%"},
      {"measurement": "PERCENTAGE OF CELL PROLIFERATION", "setting": "[1]; 10 000 nM", "result": 2.11, "unit": "%"},
      {"measurement": "PERCENTAGE OF CELL PROLIFERATION", "setting": "[1]; 100 000 nM", "result": 2.20, "unit": "%"},
      {"measurement": "PERCENTAGE OF CELL PROLIFERATION", "setting": "[2]; 0.1 nM", "result": 86.00, "unit": "%"},
      {"measurement": "PERCENTAGE OF CELL PROLIFERATION", "setting": "[2]; 1 nM", "result": 84.00, "unit": "%"},
      {"measurement": "PERCENTAGE OF CELL PROLIFERATION", "setting": "[2]; 10 nM", "result": 58.00, "unit": "%"},
      {"measurement": "PERCENTAGE OF CELL PROLIFERATION", "setting": "[2]; 100 nM", "result": 44.00, "unit": "%"},
      {"measurement": "PERCENTAGE OF CELL PROLIFERATION", "setting": "[2]; 1 000 nM", "result": 18.00, "unit": "%"},
      {"measurement": "PERCENTAGE OF CELL PROLIFERATION", "setting": "[2]; 10 000 nM", "result": 9.00, "unit": "%"},
      {"measurement": "PERCENTAGE OF CELL PROLIFERATION", "setting": "[2]; 100 000 nM", "result": 13.00, "unit": "%"},
      {"measurement": "PERCENTAGE OF CELL PROLIFERATION", "setting": "[3]; 0.1 nM", "result": 108.00, "unit": "%"},
      {"measurement": "PERCENTAGE OF CELL PROLIFERATION", "setting": "[3]; 1 nM", "result": 86.00, "unit": "%"},
      {"measurement": "PERCENTAGE OF CELL PROLIFERATION", "setting": "[3]; 10 nM", "result": 54.00, "unit": "%"},
      {"measurement": "PERCENTAGE OF CELL PROLIFERATION", "setting": "[3]; 100 nM", "result": 31.00, "unit": "%"},
      {"measurement": "PERCENTAGE OF CELL PROLIFERATION", "setting": "[3]; 1 000 nM", "result": 23.00, "unit": "%"},
      {"measurement": "PERCENTAGE OF CELL PROLIFERATION", "setting": "[3]; 10 000 nM", "result": 10.00, "unit": "%"},
      {"measurement": "PERCENTAGE OF CELL PROLIFERATION", "setting": "[3]; 100 000 nM", "result": 12.00, "unit": "%"},
      {"measurement": "PERCENTAGE OF CELL PROLIFERATION", "setting": "[4]; 0.1 nM", "result": 132.00, "unit": "%"},
      {"measurement": "PERCENTAGE OF CELL PROLIFERATION", "setting": "[4]; 1 nM", "result": 111.00, "unit": "%"},
      {"measurement": "PERCENTAGE OF CELL PROLIFERATION", "setting": "[4]; 10 nM", "result": 75.00, "unit": "%"},
      {"measurement": "PERCENTAGE OF CELL PROLIFERATION", "setting": "[4]; 100 nM", "result": 39.00, "unit": "%"},
      {"measurement": "PERCENTAGE OF CELL PROLIFERATION", "setting": "[4]; 1 000 nM", "result": 35.00, "unit": "%"},
      {"measurement": "PERCENTAGE OF CELL PROLIFERATION", "setting": "[4]; 10 000 nM", "result": 10.00, "unit": "%"},
      {"measurement": "PERCENTAGE OF CELL PROLIFERATION", "setting": "[4]; 100 000 nM", "result": 11.00, "unit": "%"},
      {"measurement": "PERCENTAGE OF CELL PROLIFERATION", "setting": "[5]; 0.1 nM", "result": 89.00, "unit": "%"},
      {"measurement": "PERCENTAGE OF CELL PROLIFERATION", "setting": "[5]; 1 nM", "result": 101.00, "unit": "%"},
      {"measurement": "PERCENTAGE OF CELL PROLIFERATION", "setting": "[5]; 10 nM", "result": 68.00, "unit": "%"},
      {"measurement": "PERCENTAGE OF CELL PROLIFERATION", "setting": "[5]; 100 nM", "result": 37.00, "unit": "%"},
      {"measurement": "PERCENTAGE OF CELL PROLIFERATION", "setting": "[5]; 1 000 nM", "result": 27.00, "unit": "%"},
      {"measurement": "PERCENTAGE OF CELL PROLIFERATION", "setting": "[5]; 10 000 nM", "result": 10.00, "unit": "%"},
      {"measurement": "PERCENTAGE OF CELL PROLIFERATION", "setting": "[5]; 100 000 nM", "result": 7.00, "unit": "%"},
      {"measurement": "PERCENTAGE OF CELL PROLIFERATION", "setting": "[6]; 0.1 nM", "result": 99.00, "unit": "%"},
      {"measurement": "PERCENTAGE OF CELL PROLIFERATION", "setting": "[6]; 1 nM", "result": 98.00, "unit": "%"},
      {"measurement": "PERCENTAGE OF CELL PROLIFERATION", "setting": "[6]; 10 nM", "result": 40.00, "unit": "%"},
      {"measurement": "PERCENTAGE OF CELL PROLIFERATION", "setting": "[6]; 100 nM", "result": 24.00, "unit": "%"},
      {"measurement": "PERCENTAGE OF CELL PROLIFERATION", "setting": "[6]; 1 000 nM", "result": 17.00, "unit": "%"},
      {"measurement": "PERCENTAGE OF CELL PROLIFERATION", "setting": "[6]; 10 000 nM", "result": 13.00, "unit": "%"},
      {"measurement": "PERCENTAGE OF CELL PROLIFERATION", "setting": "[6]; 100 000 nM", "result": 9.00, "unit": "%"},
      {"measurement": "PERCENTAGE OF CELL PROLIFERATION", "setting": "U87 (human glioblastoma); 0.1 nM", "result": 108.00, "unit": "%"},
      {"measurement": "PERCENTAGE OF CELL PROLIFERATION", "setting": "U87 (human glioblastoma); 1 nM", "result": 85.00, "unit": "%"},
      {"measurement": "PERCENTAGE OF CELL PROLIFERATION", "setting": "U87 (human glioblastoma); 10 nM", "result": 42.00, "unit": "%"},
      {"measurement": "PERCENTAGE OF CELL PROLIFERATION", "setting": "U87 (human glioblastoma); 100 nM", "result": 23.00, "unit": "%"},
      {"measurement": "PERCENTAGE OF CELL PROLIFERATION", "setting": "U87 (human glioblastoma); 1 000 nM", "result": 15.00, "unit": "%"},
      {"measurement": "PERCENTAGE OF CELL PROLIFERATION", "setting": "U87 (human glioblastoma); 10 000 nM", "result": 5.00, "unit": "%"},
      {"measurement": "PERCENTAGE OF CELL PROLIFERATION", "setting": "U87 (human glioblastoma); 100 000 nM", "result": 6.00, "unit": "%"}
    ]}
  ]
}
